# Reference: patent US20260200946A1, “KRAS(G12V) INHIBITORS” (Ranok Therapeutics (Hangzhou) Co. Ltd., priority 2022, published 2026)
# Tested on: NCIH727 cells
# Experiment: Cancer cell line proliferation (CellTiter-Glo), NCI-H727
# Format: cell-based
# Conditions: Homo sapiens, 72 h, NCIH727 lung carcinoid, heterozygous G12V
# Procedure: Cell lines were cultured essentially according to ATCC recommendations.
# SW620 and NCIH727 cells were plated in 384-well tissue culture plates at 1,000 cells/well and incubated at 37° C./5% CO2 for 72 hr in 40 μl of media. […] Each cell line was then treated with test compounds at various concentrations with a final concentration of 0.5% DMSO/well, and then incubated at 37° C./5% CO2 for 72 hr. 40 μl of CellTiter-Glo® Reagent (Promega Corporation, Madison, WI) was added to each well and processed according manufacturer's protocol. Results were analyzed and IC50 values were calculated in GraphPad 8.0 software.
row,SMILES,EC50
1,"C#Cc1c(F)ccc2cc(O)cc(-c3nc(OC)c4c(N5CC6CCC(C5)N6C(=O)C[C@H](C)C#N)nc(OCC5(CN6CC7CC7C6)CC5)nc4c3F)c12 (single isomer, unassigned) [Example 178]",0.1 to 1 µM
2,C#Cc1c(F)ccc2cc(O)cc(-c3nc(OC)c4c(N5CC6CCC(C5)N6C(=O)C5(F)CC5)nc(OCC5(CN6CCC(F)CC6)CC5)nc4c3F)c12 [Example 66],0.1 to 1 µM
3,C#Cc1c(F)ccc2cc(O)cc(-c3nc(OC)c4c(N5CC6CCC(C5)N6C(=O)NCC(C)(C)F)nc(OCC5(CN6CCC(F)CC6)CC5)nc4c3F)c12 [Example 67],0.1 to 1 µM
4,C#Cc1c(F)ccc2cc(O)cc(-c3nc(OC)c4c(N5CC6CCC(C5)N6C(=O)N[C@H]5C[C@H]5F)nc(OCC5(CN6CCC(F)CC6)CC5)nc4c3F)c12 [Example 68],> 1 µM
5,C#Cc1c(F)ccc2cc(O)cc(-c3nc(OC)c4c(N5CC6CCC(C5)N6C(=O)[C@H]5CC5(F)F)nc(OCC5(CN6CCC(F)CC6)CC5)nc4c3F)c12 [Example 69],< 0.1 µM
6,C#Cc1c(F)ccc2cc(O)cc(-c3nc(OC)c4c(N5CC6CCC(C5)N6CC5COC5)nc(OCC5(CN6CCC(F)CC6)CC5)nc4c3F)c12 [Example 70],> 1 µM
7,C#Cc1c(F)ccc2cc(O)cc(-c3nc(OC)c4c(N5CC6CCC(C5)N6C(=O)[C@@H]5CC5(F)F)nc(OCC5(CN6CCC(F)CC6)CC5)nc4c3F)c12 [Example 72],0.1 to 1 µM
8,C#Cc1c(F)ccc2cc(O)cc(-c3nc(OC)c4c(N5CC6CCC(C5)N6C(=O)N[C@@H]5C[C@H]5F)nc(OCC5(CN6CCC(F)CC6)CC5)nc4c3F)c12 [Example 73],0.1 to 1 µM
9,C#Cc1c(F)ccc2cc(O)cc(-c3nc(C#C)c4c(N5CC6CCC(C5)N6C(=O)NC(C)(C)C)nc(OCC5(CN6CCC(F)CC6)CC5)nc4c3F)c12 [Example 74],0.1 to 1 µM
10,C#Cc1c(F)ccc2cc(O)cc(-c3nc(OC)c4c(N5CC6CCC(C5)N6C(=O)NCC5(F)COC5)nc(OCC5(CN6CCC(F)CC6)CC5)nc4c3F)c12 [Example 75],0.1 to 1 µM
11,C#Cc1c(F)ccc2cc(O)cc(-c3nc(OC)c4c(N5CC6CCC(C5)N6C(=O)NCC(F)(F)CO)nc(OCC5(CN6CCC(F)CC6)CC5)nc4c3F)c12 [Example 76],0.1 to 1 µM
12,C#Cc1c(F)ccc2cc(O)cc(-c3nc(OC)c4c(N5CC6CCC(C5)N6C(=O)C5C[C@H]5F)nc(OCC5(CN6CCC(F)CC6)CC5)nc4c3F)c12 (some centres unmarked) [Example 77],< 0.1 µM
13,C#Cc1c(F)ccc2cc(O)cc(-c3nc(OC)c4c(N5CC6CCC(C5)N6C(=O)[C@H]5C[C@@H]5F)nc(OCC5(CN6CCC(F)CC6)CC5)nc4c3F)c12 [Example 78],0.1 to 1 µM
14,C#Cc1c(F)ccc2cc(O)cc(-c3nc(OC)c4c(N5CC6CCC(C5)N6C(=O)NC5CCC(F)(F)C5)nc(OCC5(CN6CCC(F)CC6)CC5)nc4c3F)c12 (centres unmarked) [Example 79],0.1 to 1 µM
15,C#Cc1c(F)ccc2cc(O)cc(-c3nc(OC)c4c(N5CC6CCC(C5)N6C(=O)C5C[C@H]5C#N)nc(OCC5(CN6CCC(F)CC6)CC5)nc4c3F)c12 (some centres unmarked) [Example 80],< 0.1 µM
16,C#Cc1c(F)ccc2cc(O)cc(-c3nc(OC)c4c(N5CC6CCC(C5)N6C(=O)N[C@H]5CCC(F)(F)C5)nc(OCC5(CN6CCC(F)CC6)CC5)nc4c3F)c12 [Example 81],< 0.1 µM
17,C#Cc1c(F)ccc2cc(O)cc(-c3nc(OC)c4c(N5CC6CCC(C5)N6C(=O)N[C@@H]5CCC(F)(F)C5)nc(OCC5(CN6CCC(F)CC6)CC5)nc4c3F)c12 [Example 82],0.1 to 1 µM
18,C#Cc1c(F)ccc2cc(O)cc(-c3nc(OC)c4c(N5CC6CCC(C5)N6C(=N)NCC(F)(F)F)nc(OCC5(CN6CCC(F)CC6)CC5)nc4c3F)c12 [Example 85],> 1 µM
19,C#Cc1c(F)ccc2cc(O)cc(-c3nc(OC)c4c(N5CC6CCC(C5)N6C(=O)NC5CC5(F)F)nc(OCC5(CN6CCC(F)CC6)CC5)nc4c3F)c12 (centres unmarked) [Example 86],0.1 to 1 µM
20,C#Cc1c(F)ccc2cc(O)cc(-c3nc(OC)c4c(N5CC6CCC(C5)N6C(=O)NC5CC[C@@H](F)C5)nc(OCC5(CN6CCC(F)CC6)CC5)nc4c3F)c12 (some centres unmarked) [Example 87],0.1 to 1 µM
21,C#CCNC(=O)N1C2CCC1CN(c1nc(OCC3(CN4CCC(F)CC4)CC3)nc3c(F)c(-c4cc(O)cc5ccc(F)c(C#C)c45)nc(OC)c13)C2 [Example 88],< 0.1 µM
22,C#Cc1c(F)ccc2cc(O)cc(-c3nc(OC)c4c(N5CC6CCC(C5)N6C(=O)NC5CCC5)nc(OCC5(CN6CCC(F)CC6)CC5)nc4c3F)c12 [Example 89],< 0.1 µM
23,C#Cc1c(F)ccc2cc(O)cc(-c3nc(OC)c4c(N5CC6CCC(C5)N6C(=O)Nc5cc(F)cc(F)c5)nc(OCC5(CN6CCC(F)CC6)CC5)nc4c3F)c12 [Example 90],0.1 to 1 µM
24,C#Cc1c(F)ccc2cc(O)cc(-c3nc(OC)c4c(N5CC6CCC(C5)N6C(=O)NC5CC(F)C5)nc(OCC5(CN6CCC(F)CC6)CC5)nc4c3F)c12 (centres unmarked) [Example 91],< 0.1 µM

row,SMILES,EC50
1,C#Cc1c(F)ccc2cc(O)cc(-c3nc(OC)c4c(N5CC6CCC(C5)N6C(=O)NC(C)C#N)nc(OCC5(CN6CCC(=C)CC6)CC5)nc4c3F)c12 (centres unmarked) [Example 93],< 0.1 µM
2,C#Cc1c(F)ccc2cc(O)cc(-c3nc(C#C)c4c(N5CC6CCC(C5)N6C(=O)C5CC5(F)F)nc(OCC5(CN6CCC(F)CC6)CC5)nc4c3F)c12 (centres unmarked) [Example 94],0.1 to 1 µM
3,C#Cc1c(F)ccc2cc(O)cc(-c3nc(C#C)c4c(N5CC6CCC(C5)N6C(=O)NC5CC5)nc(OCC5(CN6CCC(F)CC6)CC5)nc4c3F)c12 [Example 95],0.1 to 1 µM
4,C#CCNC(=O)N1C2CCC1CN(c1nc(OCC3(CN4CCC(F)CC4)CC3)nc3c(F)c(-c4cc(O)cc5ccc(F)c(C#C)c45)nc(C#C)c13)C2 [Example 96],0.1 to 1 µM
5,C#Cc1c(F)ccc2cc(O)cc(-c3nc(OC)c4c(N5CC6CCC(C5)N6C(=O)Nc5ccc6c(c5)CCO6)nc(OCC5(CN6CCC(F)CC6)CC5)nc4c3F)c12 [Example 97],0.1 to 1 µM
6,C#Cc1c(F)ccc2cc(O)cc(-c3nc(C#C)c4c(N5CC6CCC(C5)N6C(=O)NCC(F)(F)F)nc(OCC5(CN6CCC(F)CC6)CC5)nc4c3F)c12 [Example 100],0.1 to 1 µM
7,C#Cc1c(F)ccc2cc(O)cc(-c3nc(OC)c4c(N5CC6CCC(C5)N6C(=O)[C@H]5CC5(F)F)nc(OCC5(CN6CC7CC7C6)CC5)nc4c3F)c12 (some centres unmarked) [Example 102],< 0.1 µM
8,C#Cc1c(F)ccc2cc(O)cc(-c3nc(C#C)c4c(N5CC6CCC(C5)N6C(=O)CCC#N)nc(OCC5(CN6CCC(F)CC6)CC5)nc4c3F)c12 [Example 103],0.1 to 1 µM
9,C#Cc1c(F)ccc2cc(O)cc(-c3nc(OC)c4c(N5CC6CCC(C5)N6C(=O)COC)nc(OCC5(CN6CC7CC7C6)CC5)nc4c3F)c12 (centres unmarked) [Example 106],0.1 to 1 µM
10,C#Cc1c(F)ccc2cc(O)cc(-c3nc(OC)c4c(N5CC6CCC(C5)N6C(=O)CCN(C)C)nc(OCC5(CN6CC7CC7C6)CC5)nc4c3F)c12 (centres unmarked) [Example 107],> 1 µM
11,C#Cc1c(F)ccc2cc(O)cc(-c3nc(OC)c4c(N5CC6CCC(C5)N6C(=O)CCOC)nc(OCC5(CN6CC7CC7C6)CC5)nc4c3F)c12 (centres unmarked) [Example 108],0.1 to 1 µM
12,C#Cc1c(F)ccc2cc(O)cc(-c3nc(OC)c4c(N5CC6CCC(C5)N6C(=O)N(C)CC#N)nc(OCC5(CN6CC7CC7C6)CC5)nc4c3F)c12 (centres unmarked) [Example 110],> 1 µM
13,C#Cc1c(F)ccc2cc(O)cc(-c3nc(OC)c4c(N5CC6CCC(C5)N6C(=O)OC(C)(C)C#N)nc(OCC5(CN6CC7CC7C6)CC5)nc4c3F)c12 (centres unmarked) [Example 111],< 0.1 µM
14,C#Cc1c(F)ccc2cc(O)cc(-c3nc(OC)c4c(N5CC6CCC(C5)N6C(=O)C(C#N)C(C)(C)C)nc(OCC5(CN6CC7CC7C6)CC5)nc4c3F)c12 (centres unmarked) [Example 112],> 1 µM
15,C#Cc1c(F)ccc2cc(O)cc(-c3nc(OC)c4c(N5CC6CCC(C5)N6C(=O)CCCC#N)nc(OCC5(CN6CC7CC7C6)CC5)nc4c3F)c12 (centres unmarked) [Example 113],0.1 to 1 µM
16,C#Cc1c(F)ccc2cc(O)cc(-c3nc(OC)c4c(N5CC6CCC(C5)N6C(=O)C5(C)CC5)nc(OCC5(CN6CC7CC7C6)CC5)nc4c3F)c12 (centres unmarked) [Example 114],> 1 µM
17,C#Cc1c(F)ccc2cc(O)cc(-c3nc(OC)c4c(N5CC6CCC(C5)N6C(=O)C5(C#N)CC5)nc(OCC5(CN6CC7CC7C6)CC5)nc4c3F)c12 (centres unmarked) [Example 115],0.1 to 1 µM
18,C#Cc1c(F)ccc2cc(O)cc(-c3nc(OC)c4c(N5CC6CCC(C5)N6C(=O)C5(C(F)(F)F)CC5)nc(OCC5(CN6CC7CC7C6)CC5)nc4c3F)c12 (centres unmarked) [Example 116],> 1 µM
19,C#Cc1c(F)ccc2cc(O)cc(-c3nc(OC)c4c(N5CCN(C(=O)CC#N)[C@@H](CC#N)C5)nc(OCC5(CN6CC7CC7C6)CC5)nc4c3F)c12 (some centres unmarked) [Example 117],> 1 µM
20,C#Cc1c(F)ccc2cc(O)cc(-c3nc(OC)c4c(N5CC6CCC(C5)N6C(C)=O)nc(OCC5(CN6CC7CC7C6)CC5)nc4c3F)c12 (centres unmarked) [Example 120],0.1 to 1 µM
21,C#Cc1c(F)ccc2cc(O)cc(-c3nc(OC)c4c(N5CC6CCC(C5)N6C(C)C)nc(OCC5(CN6CC7CC7C6)CC5)nc4c3F)c12 (centres unmarked) [Example 121],> 1 µM
22,C#Cc1c(F)ccc2cc(O)cc(-c3nc(OC)c4c(N5CC6CCC(C5)N6C(=O)CC(C)=O)nc(OCC5(CN6CC7CC7C6)CC5)nc4c3F)c12 (centres unmarked) [Example 122],0.1 to 1 µM
23,C#Cc1c(F)ccc2cc(O)cc(-c3nc(OC)c4c(N5CC6CCC(C5)N6C(=O)C(C)C#N)nc(OCC5(CN6CC7CC7C6)CC5)nc4c3F)c12 (centres unmarked) [Example 123],0.1 to 1 µM

# Same assay, conditions: NCIH727 lung carcinoid, heterozygous G12V, 72 hr
row,SMILES,EC50
1,C#Cc1c(F)ccc2cc(O)cc(-c3nc(OC)c4c(N5CC6CCC(C5)N6C(=O)C5C[C@H]5C#N)nc(OCC5(CN6CCC(F)CC6)CC5)nc4c3F)c12 (some centres unmarked) [Example 83],0.1 to 1 µM
2,C#Cc1c(F)ccc2cc(O)cc(-c3nc(OC)c4c(N5CC6CCC(C5)N6C(=O)C5C[C@H]5C#N)nc(OCC5(CN6CCC(F)CC6)CC5)nc4c3F)c12 (some centres unmarked) [Example 84],< 0.1 µM
3,C#Cc1c(F)ccc2cc(O)cc(-c3nc(OC)c4c(N5CC6CCC(C5)N6C(=O)NC5CC(F)C5)nc(OCC5(CN6CCC(F)CC6)CC5)nc4c3F)c12 (centres unmarked) [Example 92],0.1 to 1 µM
